# Results as given in patent publication US7238725B2, “Tricyclic compounds useful for the treatment of inflammatory and allergic disorders: process for their preparation and pharmaceutical compositions containing them” (Glenmark Pharmaceuticals Ltd., priority 2002, dated 2007).
# Where two headings read alike, the source gives them in different places.
# Assays:
# PDE4 enzyme = assay: Inhibition of Phosphodiesterase Enzymes (PDE4), [3H]cAMP hydrolysis; format: biochemical
# Protocol: Inhibition of Phosphodiesterase Enzymes (PDE4)
# In this assay, PDE4 enzyme converts [^3H] cAMP to the corresponding [^3H] 5′-AMP in proportion to the amount of PDE4 present The [^3H] 5′-AMP then was quantitatively converted to free [^3H] adenosine and phosphate by the action of snake venom 5′-nucleotidase.
# The assay was performed with modification of the method of Thompson and Appleman (Biochemistry; 1971; 10; 311-316) and Schwartz and Passoneau (Proc. Natl. Acad. Sci. U.S.A. 1974; 71; 3844-3848), both references incorporated herein by reference in their entirety, at 34° C. In a 200 ul total reaction mixture, the reaction mixture contained 12.5 mM of Tris, 5 mM MgCl2, 1 μM cAMP (cold) and ^3H cAMP (0.1 uCi), (Amersham). […] Drug samples were then added in the reaction mixture (25 μl/tube). The assay was initiated by addition of enzyme mix (75 μl) and the mixture was incubated for 20 minutes at 34° C. The reaction was stopped by boiling the tubes for 2 mins at 100° C. in a water bath. After cooling on ice for 5 minutes and addition of 50 ug/reaction of 5′-nucleotidase snake venom from Crotalus atrox incubation was carried out again for 20 min. at 34° C. The unreacted substrate was separated from (^3H) Adenosine by addition of Dowex AG 1-X8 (Biorad Lab), (400 ul) which was prequilibrated (1:1:1) in water and ethanol. Reaction mixture was then thoroughly mixed, placed on ice for 15 minutes, vortexed and centrifuged at 14,000 r.p.m. for 2 mins. After centrifugation, a sample of the supernatant was taken and added in 24 well optiplates containing Scintillant (1 ml) and mixed well. The samples in the plates were then determined for radioactivity in a Top Counter and the PDE4 activity was estimated. PDE4 enzyme was present in quantities that yield <30% total hydrolysis of substrate (linear assay conditions).
# (§1) Results were expressed as percent inhibition (IC50) in nM concentrations. The IC50 values were determined from the concentration curves by nonlinear regression analysis.
# The IC50 value for the compound examined was determined from concentration-response curves in which varying range of concentrations were considered as shown in table 1
# PDE4 = assay: Cell Based Assay for PDE4 Inhibition: cAMP elevation in whole U937 cells; details: 1 μM PGE1, normalized over PGE1
# Protocol: Cell Based Assay for PDE4 Inhibition:
# cAMP elevation studies were conducted in whole U937 cells. U937 cells (ATCC) were grown in RPMI medium containing 10% FBS, 1% pen-strep solution, 1% L-glutamine for 48 hrs. On the day of assay, the cells were washed twice with plain RPM1 medium by centrifuging at 800 rpm for 5 mins. Cells were resuspended in plain RPM1 medium followed by cell number and viability assessment using a trypan blue stain. Cells (0.15-0.2 mio cells per well) were seeded in a 96 well microtitre plate and incubated with various drugs/DMSO vehicle at 37° C. for 15 min. cAMP generation was started by addition of 1 μM PGE1 for 15 mins. The incubation was terminated by addition of cell lysis buffer from cAMP estimation kit. Lysate was used for cAMP quantitatin by chemiluminescence method (DiscoveRX kits). cAMP values were normalized over PGE1. EC50 values were calculated from dose response curves by nonlinear regression analysis using PRISM software.
# [1] = target: PDE 1 (Ca2+/calmodulin-dependent); assay: Activity against other Phosphodiesterase enzymes: PDE 1; format: biochemical
# Protocol: (§2) Additionally, activity of the compounds were tested against other Phosphodiesterase enzymes, namely, PDE 1 (Ca^2+/calmodulin-dependent), PDE 2 (cGP-stimulated), PDE 3 (cGP-inhibited), PDE 5 (cGP-specific) and PDE 6 (cGP-specific, photoreceptor).
# as §1
# PDE 2 (cGP-stimulated) = PDE 2 (cGP-stimulated) (Homo sapiens, UniProt O00408); assay: Activity against other Phosphodiesterase enzymes: PDE 2; format: biochemical; details: read-out: IC50 values PDE2
# Chain of PDE 2 (cGP-stimulated) (O00408 whole entry): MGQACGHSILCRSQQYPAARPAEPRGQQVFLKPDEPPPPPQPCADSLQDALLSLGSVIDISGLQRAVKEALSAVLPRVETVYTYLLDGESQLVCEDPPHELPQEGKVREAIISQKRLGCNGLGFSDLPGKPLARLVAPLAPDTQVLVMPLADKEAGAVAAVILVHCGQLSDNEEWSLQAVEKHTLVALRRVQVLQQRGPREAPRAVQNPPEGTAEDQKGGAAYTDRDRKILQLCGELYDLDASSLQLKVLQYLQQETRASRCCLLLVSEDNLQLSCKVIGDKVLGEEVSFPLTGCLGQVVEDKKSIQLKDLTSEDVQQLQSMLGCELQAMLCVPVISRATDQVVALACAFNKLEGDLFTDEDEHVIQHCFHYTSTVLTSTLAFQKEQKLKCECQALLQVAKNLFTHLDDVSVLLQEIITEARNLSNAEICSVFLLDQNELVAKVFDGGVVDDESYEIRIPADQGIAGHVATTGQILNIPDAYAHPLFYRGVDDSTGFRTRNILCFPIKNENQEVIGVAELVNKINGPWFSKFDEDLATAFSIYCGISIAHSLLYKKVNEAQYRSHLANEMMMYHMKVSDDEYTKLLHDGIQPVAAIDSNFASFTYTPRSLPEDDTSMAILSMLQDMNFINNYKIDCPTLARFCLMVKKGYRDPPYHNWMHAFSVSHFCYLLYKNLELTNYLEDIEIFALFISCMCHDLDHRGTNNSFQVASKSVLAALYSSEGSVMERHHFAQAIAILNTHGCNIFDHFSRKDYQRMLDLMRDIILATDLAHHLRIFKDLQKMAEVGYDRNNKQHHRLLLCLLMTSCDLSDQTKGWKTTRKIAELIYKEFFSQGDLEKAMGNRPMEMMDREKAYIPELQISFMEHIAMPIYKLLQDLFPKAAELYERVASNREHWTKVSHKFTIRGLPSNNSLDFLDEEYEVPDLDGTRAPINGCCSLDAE
# Protocol: as §2, §1
# PDE 3 (cGP-inhibited) = assay: Activity against other Phosphodiesterase enzymes: PDE 3; format: biochemical; details: read-out: IC50 values PDE3
# Protocol: as §2, §1
# [2] = target: PDE 6 (cGP-specific, photoreceptor); assay: Activity against other Phosphodiesterase enzymes: PDE 6; format: biochemical
# Protocol: as §2, §1
# [3] = PDE4 enzyme, 1 μM cAMP and 3H cAMP, 34° C., read-out: IC50
Structure (SMILES),IC50 (PDE4 enzyme; [3]),melting point,EC50 (PDE4),other results
"COc1ccc(C(=O)Nc2c(Cl)cncc2Cl)c2c1oc1ccccc12 [Example 1, N-(3,5-dichloropyrid-4-yl)-4-methoxy dibenzo[b,d]furan-1-carboxamide]",0.8 nM,302 °C,83.7 nM,"IC50 (PDE4 enzyme; Table 1, read-out: IC50 values PDE4): 0.8 nM; % inhibition at 100 µM [1]: 44%; IC50 (PDE 2 (cGP-stimulated)): 69100 nM; IC50 (PDE 3 (cGP-inhibited)): 61800 nM; % inhibition at 100 µM [2]: 36%"
"COc1ccc(C(=O)Nc2c(Cl)c[n+]([O-])cc2Cl)c2c1oc1ccccc12 [Example 2, N-(3,5-dichloropyrid-4-yl)-4-methoxy dibenzo[b,d]furan-1-carboxamide-N1-oxide]",,265 to 270 °C,23.8 nM,
"COc1ccc(C(=O)Nc2cc[n+]([O-])cc2)c2c1oc1ccccc12 [Example 4, N(pyrid-4-yl)-4-methoxy dibenzo[b,d]furan-1-carboxamide-N1-oxide]",20.2 nM,,> 300 nM,
"COc1ccc(C(=O)Nc2cccnc2Cl)c2c1oc1ccccc12 [Example 5, N-(2-chloropyrid-3-yl)-4-methoxy dibenzo[b,d]furan-1-carboxamide]",336 nM,192 °C,,
"COc1ccc(C(=O)Nc2cccnc2)c2c1oc1ccccc12 [Example 7, N-(pyrid-3-yl)-4-methoxy dibenzo[b,d]furan-1-carboxamide]",26 nM,226 °C,,
"COc1ccc(C(=O)Nc2c(Cl)cncc2Cl)c2c1oc1ccc(C(F)(F)F)cc12 [Example 9, N-(3,5-dichloropyrid-4-yl)-4-methoxy-8-trifluoromethyl dibenzo[b,d]furan-1-carboxamide]",1.56 nM,,17.6 nM,
"COc1ccc(C(=O)Nc2c(Cl)c[n+]([O-])cc2Cl)c2c1oc1ccc(C(F)(F)F)cc12 [Example 10, N-(3,5-dichloropyrid-4-yl)-4-methoxy-8-trifluoromethyl dibenzo[b,d]furan-1-carboxamide-N1-oxide]",1.68 nM,,117 nM,
"COc1ccc(C(=O)Nc2ccncc2)c2c1oc1ccc(C(F)(F)F)cc12 [Example 11, N(pyrid-4-yl)-4-methoxy-8-trifluoromethyl dibenzo[b,d]furan-1-carboxamide]",9.14 nM,,> 220 nM,
"O=C(Nc1c(Cl)cncc1Cl)c1ccc(OC(F)F)c2oc3ccc(C(F)(F)F)cc3c12 [Example 12, N-(3,5-dichloropyrid-4-yl)-4-difluoromethoxy-8-trifluoromethyl dibenzo[b,d]furan-1-carboxamide]",1.21 nM,228 °C,140 nM,
"O=C(Nc1c(Cl)c[n+]([O-])cc1Cl)c1ccc(OC(F)F)c2oc3ccc(C(F)(F)F)cc3c12 [Example 13, N-(3,5-dichloropyrid-4-yl)-4-difluoromethoxy-trifluoromethyl dibenzo[b,d]furan-1-carboxamide-N1-oxide]",2.54 nM,,128 nM,
"O=C(Nc1ccncc1)c1ccc(OC(F)F)c2oc3ccc(C(F)(F)F)cc3c12 [Example 14, N-(pyrid-4-yl)-4-difluoromethoxy-8-trifluoromethyl dibenzo[b,d]furan-1-carboxamide]",6.41 nM,228 °C,,
"O=C(Nc1c(Cl)cncc1Cl)c1ccc(OC(F)F)c2oc3ccccc3c12 [Example 19, N-(3,5-dichloropyrid-4-yl)-4-difluoromethoxy dibenzo[b,d]furan-1-carboxamide]",2.54 nM,270 °C,20.4 nM,
"O=C(Nc1c(Cl)cncc1Cl)c1ccc(OCC2CC2)c2oc3ccccc3c12 [Example 25, N-(3,5-dichloropyrid-4-yl)-4-cyclopropylmethoxy dibenzo[b,d]furan-1-carboxamide]",111 nM,242 °C,,
"COc1ccc(C(=O)Nc2c(Cl)cncc2Cl)c2c1oc1ccc([N+](=O)[O-])cc12 [Example 38, N-(3,5-dichloropyrid-4-yl)-4-methoxy-8-nitro dibenzo[b,d]furan-1-carboxamide]",2.85 nM,,87.9 nM,

# The next lines start with results.
IC50 (PDE4 enzyme; [3]),melting point,Structure (SMILES),EC50 (PDE4),other results
0.839 nM,300 °C,"COc1ccc(C(=O)Nc2c(Cl)cncc2Cl)c2c1oc1ccc(Cl)cc12 [Example 41, N-(3,5-dichloropyrid-4-yl)-4-methoxy-8-chloro-dibenzo[b,d]furan-1-carboxamide]",200 nM,
4.92 nM,308 °C,"COc1ccc(C(=O)Nc2c(Cl)cncc2Cl)c2c1oc1ccc(Br)cc12 [Example 42, N-(3,5-dichloropyrid-4-yl)-4-methoxy-8-bromo-dibenzo[b,d]furan-1-carboxamide]",44.2 nM,
4.54 nM,304 °C (dec.),"COc1ccc(C(=O)Nc2c(Cl)cncc2Cl)c2c1oc1ccc(I)cc12 [Example 45, N-(3,5-dichloropyrid-4-yl)-4-methoxy-8-iodo-dibenzo[b,d]furan-1-carboxamide]",> 300 nM,
1.2 nM,249 °C (dec.),"COc1ccc(C(=O)Nc2c(Cl)cncc2Cl)c2c1oc1ccc(N)cc12 [Example 55, N-(3,5-dichloropyrid-4-yl)-4-methoxy-8-amino-dibenzo[b,d]furan-1-carboxamide]",47.5 nM,
2.85 nM,,"O=C(Nc1c(Cl)c[n+]([O-])cc1Cl)c1ccc(OC(F)F)c2oc3ccccc3c12 [Example 56, N-(3,5-dichloropyrid-4-yl)-4-difluoromethoxy-dibenzo[b,d]furan-1-carboxamide-N-oxide]",49.2 nM,
1.74 nM,,"COc1ccc(C(=O)Nc2c(Cl)cncc2Cl)c2c1oc1ccc(C#N)cc12 [Example 57, N-(3,5dichloropyrid-4-yl)-4-methoxy-8-cyano-dibenzo[b,d]furan-1-carboxamide]",73.7 nM,
10 nM,> 270 °C,"O=C(Nc1c(Cl)cncc1Cl)c1ccc(OC(F)F)c2oc3ccc([N+](=O)[O-])cc3c12 [Example 58, N-(3,5-dichloropyrid-4-yl)-4-difluoromethoxy-8-nitro-dibenzo[b,d]furan-1-carboxamide]",148 nM,
4.47 nM,> 270 °C,"Nc1ccc2oc3c(OC(F)F)ccc(C(=O)Nc4c(Cl)cncc4Cl)c3c2c1 [Example 59, N-(3,5-dichloropyrid-4-yl)-4-difluoromethoxy-8-amino-dibenzo[b,d]furan-1-carboxamide]",49.2 nM,
,201 to 205 °C,"COc1ccc(S(=O)(=O)Nc2c(Cl)cccc2Cl)c2c1[nH]c1ccccc12 [Example 77, N4-(2,6-Dichlorophenyl)-1-methoxy-9H-4-carbazolsulphonamide]",,
